Patent US20090143279A1 (priority 2007, published 2009)
Where two headings read alike, the source gives them in different places. Where a SMILES comes first, the peptide text is derived from it.

What was measured:
[1] = system: mitochondrial membrane potential; type: cell-based, mouse; settings: for ΔΨm (composite Z-score): normalized score vs mock-treated (DMSO) wells
[2] = system: reactive oxygen species; type: cell-based, mouse; settings: for ROS (composite Z-score): normalized score vs mock-treated (DMSO) wells
[3] = system: OXPHOS gene expression; type: cell-based, mouse; settings: for GE-HTS (composite Z-score): normalized score vs mock-treated (DMSO) wells
[4] = system: nuOXPHOS transcripts; type: cell-based, mouse; settings: for nucOX (composite Z-score): normalized score vs mock-treated (DMSO) wells
[5] = system: mtOXPHOS transcripts; type: cell-based, mouse; settings: for mitoOX (composite Z-score): normalized score vs mock-treated (DMSO) wells
[6] = system: cytochrome c; type: cell-based, mouse; settings: for cyt c (composite Z-score): normalized score vs mock-treated (DMSO) wells
[7] = system: C2C12 myotubes; settings: for Viability (composite Z-score): normalized score vs mock-treated (DMSO) wells
[8] = system: cellular dehydrogenase activity; settings: for MTT (composite Z-score): normalized score vs mock-treated (DMSO) wells
[9] = composite Z-score vs DMSO, Conc 20 μM
[10] = composite Z-score vs DMSO wells, Conc 20 μM
[11] = normalized composite Z-score vs mock-treated (DMSO) wells, Conc 20 μM
[12] = composite Z-score vs mock-treated (DMSO) wells, Conc 20 μM
[13] = Table 4, C2C12 myotubes, 48 h, composite Z-score

Structure (SMILES): C[C@H]1C(=O)CC[C@@H]2[C@]1(C)CC[C@H]1[C@@]2(C)CC[C@@]2(C)[C@@H]3CC(C)(C)CC[C@]3(C)CC[C@]12C [friedelin]
- ΔΨm [1, 9]: −0.867
- ROS [2, 9]: 0.449
- GE-HTS [3, 9]: −1.043
- nucOX [4, 9]: −1.150
- mitoOX [5, 9]: −0.600
- cyt c [6, 9]: 0.614
- Viability [7, 9]: 0.082
- MTT [8, 9]: −1.362

Structure (SMILES): NCCCC(=O)O [gamma-aminobutyric acid]
- ΔΨm [1, 10]: 0.550
- ROS [2, 10]: 0.209
- GE-HTS [3, 10]: −0.119
- nucOX [4, 10]: 0.212
- mitoOX [5, 10]: −0.693
- cyt c [6, 10]: −0.038
- Viability [7, 10]: 1.043
- MTT [8, 10]: −0.777

Structure (SMILES): COC(=O)c1c(OC)cc2c(c1C)Oc1c(Cl)c(O)c(Cl)c(C)c1C(=O)O2 [gangaleoidin]
- ΔΨm [1, 11]: −1.233
- ROS [2, 11]: 1.356
- GE-HTS [3, 11]: −0.512
- nucOX [4, 11]: −0.587
- mitoOX [5, 11]: −0.310
- cyt c [6, 11]: −0.876
- Viability [7, 11]: 0.889
- MTT [8, 11]: −1.213

Structure (SMILES): COc1cc(O)c2c(=O)cc(-c3ccc(O)cc3)oc2c1 [genkwanin]
- ΔΨm (composite Z-score) ([1]; Conc 20 μM): −0.491
- ROS (composite Z-score) ([2]; Conc 20 μM): 3.337
- GE-HTS (composite Z-score) ([3]; Conc 20 μM): 0.425
- nucOX (composite Z-score) ([4]; Conc 20 μM): 0.407
- mitoOX (composite Z-score) ([5]; Conc 20 μM): 0.389
- cyt c (composite Z-score) ([6]; Conc 20 μM): −0.037
- Viability (composite Z-score) ([7]; Conc 20 μM): −0.323
- MTT (composite Z-score) ([8]; Conc 20 μM): −2.090

Structure (SMILES): C=C1C[C@]23C[C@@]1(O)CC[C@H]2[C@@]12C=C[C@H](O)[C@@](C)(C(=O)O1)[C@H]2[C@@H]3C(=O)O [gibberellic acid]
- ΔΨm [1]: 2.622
- ΔΨm [1, 12]: −0.439
- ROS [2]: 0.246
- ROS [2, 12]: 0.512
- GE-HTS [3]: 0.021
- GE-HTS [3, 12]: −0.014
- nucOX [4]: 0.066
- nucOX [4, 12]: 0.077
- mitoOX [5]: −0.090
- mitoOX [5, 12]: −0.264
- cyt c [6]: 0.714
- cyt c [6, 12]: 0.031
- Viability [7]: −0.171
- Viability [7, 12]: −0.081
- MTT [8]: −0.432
- MTT [8, 12]: 0.661

Structure (SMILES): COc1cc(O)c2c(=O)cc(-c3ccc(OC)c(-c4c(O)cc(O)c5c(=O)cc(-c6ccc(O)cc6)oc45)c3)oc2c1 [ginkgetin]
- ΔΨm [1, 9]: −4.324
- ROS [2, 9]: −1.347
- GE-HTS [3, 9]: −2.228
- nucOX [4, 9]: −2.585
- mitoOX [5, 9]: −1.101
- cyt c [6, 9]: −3.027
- Viability [7, 9]: −1.523
- MTT [8, 9]: −3.855

Structure (SMILES): C[C@@H]1C(=O)O[C@H]2C[C@@]34[C@H]5C[C@@H](C(C)(C)C)[C@]36[C@@H](OC(=O)[C@@H]6O)O[C@@]4(C(=O)O5)[C@]21O [ginkgolide A]
- ΔΨm [1, 11]: −0.271
- ROS [2, 11]: 1.848
- GE-HTS [3, 11]: −0.247
- nucOX [4, 11]: −0.286
- mitoOX [5, 11]: −0.123
- cyt c [6, 11]: 0.541
- Viability [7, 11]: 0.380
- MTT [8, 11]: −1.019

Structure (SMILES): CC(=O)O[C@H]1CC[C@@]2(C)[C@H](CC[C@@H]3[C@@H]2CC[C@]2(C)[C@@H](C4=CC(=O)OC4)[C@@H](OC(C)=O)C[C@]32O)C1 [gitoxigenin diacetate]
- ΔΨm [1, 9]: −0.792
- ROS [2, 9]: 0.508
- GE-HTS [3, 9]: −0.594
- nucOX [4, 9]: −0.649
- mitoOX [5, 9]: −0.322
- cyt c [6, 9]: 0.684
- Viability [7, 9]: 0.187
- MTT [8, 9]: −1.077

Structure (SMILES): OC[C@@H](O)[C@@H](OC1O[C@H](CO)[C@@H](O)[C@H](O)[C@H]1O)[C@H](O)[C@@H](O)CO (stereo partly drawn) [glucitol-4-gucopyanoside]
- ΔΨm (composite Z-score) ([1]; Conc 20 μM): −0.454
- ROS (composite Z-score) ([2]; Conc 20 μM): 0.351
- GE-HTS (composite Z-score) ([3]; Conc 20 μM): −1.143
- nucOX (composite Z-score) ([4]; Conc 20 μM): −1.087
- mitoOX (composite Z-score) ([5]; Conc 20 μM): −1.006
- cyt c (composite Z-score) ([6]; Conc 20 μM): 0.305
- Viability (composite Z-score) ([7]; Conc 20 μM): −0.508
- MTT (composite Z-score) ([8]; Conc 20 μM): −0.795

Structure (SMILES): CC(C)C[C@H](NC(=O)CN)C(=O)N[C@@H](Cc1ccccc1)C(=O)O [glycylleucylphenylalanine] (H-Gly-Leu-Phe-OH)
- ΔΨm [1, 9]: −0.774
- ROS [2, 9]: 0.973
- GE-HTS [3, 9]: −0.095
- nucOX [4, 9]: 0.033
- mitoOX [5, 9]: −0.322
- cyt c [6, 9]: −0.182
- Viability [7, 9]: −0.254
- MTT [8, 9]: −0.344

Structure (SMILES): CC1(C)[C@@H](O[C@H]2O[C@H](C(=O)O)[C@@H](O)[C@H](O)[C@H]2O[C@@H]2O[C@H](C(=O)O)[C@@H](O)[C@H](O)[C@H]2O)CC[C@]2(C)[C@H]3C(=O)C=C4[C@@H]5C[C@@](C)(C(=O)O)CC[C@]5(C)CC[C@@]4(C)[C@]3(C)CC[C@@H]12 [glycyrrhizic acid]
- ΔΨm [1, 9]: −0.606
- ROS [2, 9]: 0.578
- GE-HTS [3, 9]: −0.424
- nucOX [4, 9]: −0.227
- mitoOX [5, 9]: −0.753
- cyt c [6, 9]: 0.339
- Viability [7, 9]: 0.254
- MTT [8, 9]: −0.746

Structure (SMILES): COc1cc(OC)c2c(c1Cl)O[C@@]1(C(=O)CC(=O)C[C@H]1C)C2=O [griseofulvic acid, reference compound]
- ΔΨm ([1]; Table 4, C2C12 myotubes, 48 h, JC-1, composite Z-score): −0.666
- ΔΨm [1, 12]: −0.666
- ROS [2, 13]: −0.323
- ROS [2, 12]: −0.323
- GE-HTS [3, 12]: −0.370
- nucOX [4, 12]: −0.442
- mitoOX [5, 12]: −0.209
- cyt c [6, 12]: 0.724
- Viability [7, 13]: 0.176
- Viability [7, 12]: 0.176
- MTT [8, 13]: −0.469
- MTT [8, 12]: −0.469
